The values that follow come from patent US9809553B2, “Isoquinoline compounds, a process for their preparation, and pharmaceutical compositions containing them” (LES LABORATOIRES SERVIER, priority 2014, dated 2017).

Structures can show the parent of a compound that is named as a salt. Where two headings read alike, the source gives them in different places.

The IC50 is the concentration needed to halve the response being measured.

Assay [1] concerns aortic segments of the rat (contraction induced by PHE). Put plainly: Functional test (rat aorta): vascular reactivity on aortic rings without endothelium contracted with phenylephrine. The conditions noted are these: aortic rings without endothelium contracted with PHE 10^-6 M, read-out: Relaxation (rat aorta + PHE), IC50. An excerpt:
Functional Test (Rat Aorta) Study of Vascular Reactivity on Aortic Segments of the Rat. After anaesthesia of the animal, the thoracic aorta is removed and immediately placed in a physiological saline solution (PSS). The proximal thoracic aorta is cleaned of adherent conjunctive tissue and 4 aortic rings (3-4 mm) are cut. The endothelium is removed mechanically without damaging the smooth muscle cells. The rings without endothelium are placed in PSS medium in isolated organ baths maintained at 37° C. in the presence of carbogen. The isometric tension of the rings is recorded by means of a force sensor. At their optimum tension, the rings are subjected to an equilibration period during which the physiological medium is replaced regularly. The preparations are then contracted twice by means of a hyperpotassic solution (KCl 60 mM), each of the 2 contractions being followed by successive washings in order to return to the original tension. The absence of endothelium is verified after contraction by an al-adrenergic receptor agonist, phenylephrine (PHE, 10^−6M), followed by the addition of carbachol (10^−5M), a muscarinic receptor agonist, which induces a relaxation only in the presence of endothelium. The rings are then washed regularly with PSS for 60 minutes in order to remove the pharmacological agents. The rings are recontracted with PHE (10^−6M) and then, after stabilisation of the contraction, the product or its solvent is added in cumulative concentrations, 5 concentrations are tested: 10M^−8, 10^−7M, 10^−6M, 10M^−5 and 3×10^−5M (if the product is dissolved in DMSO) or 10^−4M (if H2O is the solvent of the product). The contractile response is obtained in milligrams (mg). The results are expressed by the mean±SEM of the contractile responses obtained on at least 2 rats. The variations in tension of each product are calculated as a percentage of the maximum contraction induced by PHE before the product is added, according to the formula: % contraction B(t)=[×(mg) tension(compound)B(t)/y (mg) maximum tension (PHE)B]×100. The concentration-response curves obtained are analysed and allow the IC50 value of each product to be determined (IC50: concentration of product necessary to inhibit 50% of the maximum contraction induced by PHE), the estimation of the IC50 value of the concentration-response curves being obtained by non-linear regression.

The target of the next assay is human ROCK1 (Homo sapiens, UniProt Q13464). Put plainly: ROCK1 enzymatic test (LANCE, phosphorylation of Ulight-RRRSLLE (PLK) substrate). The settings on record: human recombinant enzyme, 1 μM ATP, 50 nM Ulight-RRRSLLE (PLK) substrate, 30 minutes at ambient temperature; read-out: ROCK1(h), IC50. Format: biochemical. The procedure: Evaluation of the effects of compounds on human ROCK1 activity quantified by measuring the phosphorylation of the substrate Ulight-RRRSLLE (PLK) using a human recombinant enzyme and the LANCE® detection method.
The test compound, the reference compound or water (control) is mixed with the enzyme (8.2 ng) in a buffer comprising 40 mM Hepes/Tris (pH 7.4), 0.8 mM EGTA/Tris, 8 mM MgCl2, 1.6 mM DTT and 0.008% Tween 20.
The reaction is then started by adding 50 nM of Ulight-RRRSLLE (PLK) substrate and 1 μM of ATP, and the mixture is incubated for 30 minutes at ambient temperature. For the basal control measurements, the enzyme is excluded from the reaction mixture.
After the incubation, the reaction is stopped by adding 13 mM of EDTA. After 5 minutes, the anti-phospho-PLK antibody labelled with europium chelate is added. After a further 60 minutes, the fluorescence transfer is measured at lex=337 nm, lem=620 nm and lem=665 nm using a microplate reader (Envision, Perkin Elmer). The enzymatic activity is determined by dividing the signal measured at 665 nm by that measured at 620 nm (ratio). The results are expressed in the form of a percentage inhibition of the control enzymatic activity. The standard reference inhibition compound is staurosporine, which is tested in each experiment at several concentrations in order to obtain an inhibition curve on the basis of which the value of the IC50 (concentration that induces 50% inhibition) is calculated.
(Time-resolved FRET reads energy transfer from a long-lived donor to a nearby acceptor.)

Assay [2] has as its system arterial pressure of spontaneously hypertensive rats (SHR). Put plainly: Evaluation on the arterial pressure in spontaneously hypertensive rats (SHR), telemetry. In kind it is in vivo. The settings on record: SHR rat, maximum change of arterial pressure relative to basal. The procedure: The effect of the ROCK inhibitors was tested by the reduction of the arterial pressure (AP) that they induce in spontaneously hypertensive rats (SHR) after intravenous (i.v.) and/or oral administration. In summary, the SHRs were anaesthetised with 2% isoflurane, and a telemetry probe (PAC40, Data Science International) was implanted in the abdominal aorta to record the AP and a polyethylene catheter was implanted in the jugular vein for the i.v. administration. After recovery from the surgery (2 to 3 weeks), the AP was recorded continuously for 24 hours after administration of the ROCK inhibitors at doses of 1, 3, 10 and 30 mg/kg by the i.v. route and/or by the oral route. The effect on the AP was expressed as the percentage reduction relative to the basal arterial pressure before administration of the product.

Sequence of human ROCK1 (Q13464 whole entry): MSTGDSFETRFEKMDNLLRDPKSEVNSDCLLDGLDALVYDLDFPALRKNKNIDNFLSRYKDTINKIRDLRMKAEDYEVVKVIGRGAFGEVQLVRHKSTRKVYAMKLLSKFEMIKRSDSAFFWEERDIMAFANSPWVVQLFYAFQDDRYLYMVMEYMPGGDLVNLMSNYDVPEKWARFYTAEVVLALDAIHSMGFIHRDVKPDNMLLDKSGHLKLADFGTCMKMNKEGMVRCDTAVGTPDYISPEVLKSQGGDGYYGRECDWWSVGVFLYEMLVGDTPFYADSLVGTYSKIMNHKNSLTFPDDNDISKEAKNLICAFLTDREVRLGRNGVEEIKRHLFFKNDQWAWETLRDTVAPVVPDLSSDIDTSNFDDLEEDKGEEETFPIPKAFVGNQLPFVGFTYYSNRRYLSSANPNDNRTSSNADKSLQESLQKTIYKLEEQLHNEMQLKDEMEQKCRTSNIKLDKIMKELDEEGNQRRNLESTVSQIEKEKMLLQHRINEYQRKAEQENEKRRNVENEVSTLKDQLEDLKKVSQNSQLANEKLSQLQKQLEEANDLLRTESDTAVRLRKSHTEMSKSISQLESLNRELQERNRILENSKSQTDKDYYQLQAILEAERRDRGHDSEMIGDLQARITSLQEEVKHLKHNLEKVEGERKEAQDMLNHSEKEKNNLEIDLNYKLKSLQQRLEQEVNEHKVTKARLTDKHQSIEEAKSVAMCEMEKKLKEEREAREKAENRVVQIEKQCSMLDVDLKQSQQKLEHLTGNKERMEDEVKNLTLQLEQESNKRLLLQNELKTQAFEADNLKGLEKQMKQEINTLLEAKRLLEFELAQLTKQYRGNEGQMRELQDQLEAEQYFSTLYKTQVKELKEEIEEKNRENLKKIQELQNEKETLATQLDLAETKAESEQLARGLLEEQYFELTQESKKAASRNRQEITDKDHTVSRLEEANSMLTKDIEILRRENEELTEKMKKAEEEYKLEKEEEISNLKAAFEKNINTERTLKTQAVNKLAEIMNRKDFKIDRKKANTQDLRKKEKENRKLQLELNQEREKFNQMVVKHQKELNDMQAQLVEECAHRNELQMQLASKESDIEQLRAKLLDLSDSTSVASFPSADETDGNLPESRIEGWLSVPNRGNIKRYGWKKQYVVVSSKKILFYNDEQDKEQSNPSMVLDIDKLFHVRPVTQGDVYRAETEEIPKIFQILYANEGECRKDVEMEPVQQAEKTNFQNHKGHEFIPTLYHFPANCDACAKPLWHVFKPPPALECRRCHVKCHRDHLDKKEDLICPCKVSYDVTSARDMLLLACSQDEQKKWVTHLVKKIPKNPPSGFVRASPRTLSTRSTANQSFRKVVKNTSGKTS

As to `NC(CC1CCCCC1)c1cc(F)c(C(=O)c2cccc3c(=O)[nH]ccc23)c(F)c1` (stereo not shown) [Product P129, 5-[4-(1-Amino-2-cyclohexylethyl)-2,6-difluorobenzoyl]isoquinolin-1(2H)-one hydrochloride], the IC50 in assay [1] was 2000 nM; at human ROCK1, 20.5 nM. For the same molecule, the change in vivo at 3 mg/kg in assay [2] (IV 3 mg/kg, read-out: SHR rat ΔAP % max, IV 3 mg/kg) is -30.2%; in assay [2] (PO 3 mg/kg, read-out: SHR rat ΔAP % max, PO 3 mg/kg), -18.4%.
